Assay results from patent publication US12285407B2, “Bis-indolylmethane derivatives and uses thereof” (The University of The West Indies, priority 2018, dated 2025).
Where two headings read alike, the source gives them in different places.

Legend:
[1] = test system: Klebsiella pneumoniae; experiment: Checkerboard synergy (FICI) of antibiotics with SP-BIM; format: cell-based
[2] = test system: Candida albicans; experiment: as above; set-up: MIC SP-BIM 13 only / MIC in combination: Antibiotic / MIC antibiotic only: unit not given beside the values
[3] = test system: Streptococcus pneumoniae; experiment: Adjuvant broth microdilution (antibiotic MIC with SP-BIM at 50 μg/mL); format: cell-based; conditions: Streptococcus pneumoniae; Streptococcus pneumonia; antibiotic alone; Table 5; read-out: MIC of antibiotic, No compound
[4] = test system: MRSA; experiment: as above; format: cell-based, Staphylococcus aureus; conditions: Staphylococcus aureus, antibiotic alone, Table 4, read-out: MIC of antibiotic, No compound
[5] = test system: Enterococcus faecium; experiment: Checkerboard synergy (FICI) of antibiotics with SP-BIM; format: cell-based; conditions: Enterococcus faecium
[6] = test system: Staphylococcus aureus; experiment: as above; format: cell-based; conditions: Staphylococcus aureus, Staphylococcus aureus
[7] = test system: Bacillus cereus; experiment: as above; format: cell-based; conditions: for MIC: 24 h, antibiotic alone, read-out: MIC antibiotic only
[8] = test system: Streptococcus pneumoniae; experiment: as above; format: cell-based
[9] = test system: Klebsiella pneumoniae; experiment: Adjuvant broth microdilution (antibiotic MIC with SP-BIM at 50 μg/mL); format: cell-based; conditions: Klebsiella pneumoniae; antibiotic alone; Table 7; read-out: MIC of antibiotic, No compound
[10] = test system: Escherichia coli; experiment: Checkerboard synergy (FICI) of antibiotics with SP-BIM
[11] = test system: Escherichia coli O157:H7; experiment: Rescue concentrations of SP-BIM that reactivate antibiotic; format: cell-based
[12] = SP-BIM 9 in combination with the labelled antibiotic
[13] = SP-BIM 13 in combination with the labelled antibiotic
[14] = antibiotic in combination with SP-BIM 9
[15] = antibiotic in combination with SP-BIM 13
[16] = Streptococcus pneumoniae, antibiotic + SP-BIM 13

C[C@H]1[C@H](NC(=O)/C(=N\OC(C)(C)C(=O)O)c2csc(N)n2)C(=O)N1S(=O)(=O)O [Aztreonam, aztreonam]
FIC of SP-BIM 9 [1, 12]: 0.064
FIC of SP-BIM 13 [1, 13]: 0.3
Interpretation ([1]; antibiotic + SP-BIM 9): Synergy (Synergy: FICI≤0.5)
Σ FIC ([1]; antibiotic + SP-BIM 9): <0.1
Interpretation ([1]; antibiotic + SP-BIM 13): Synergy (Synergy: FICI≤0.5)
Σ FIC ([1]; antibiotic + SP-BIM 13): <0.3
MIC in combination, Antibiotic [1, 14]: 1 µg/mL
MIC in combination, Antibiotic [1, 15]: 8 µg/mL
FIC of antibiotic ([1]; in combination with SP-BIM 9): 0.008
FIC of antibiotic ([1]; in combination with SP-BIM 13): 0.1
MIC ([2]; 24 h, read-out: MIC antibiotic only): > 250 µg/mL
MIC in combination: Antibiotic ([2]; MIC of the antibiotic in combination with SP-BIM 13): 250
FIC of SP-BIM 13 [2, 13]: 1.0
Interpretation ([2]; antibiotic + SP-BIM 13): Indifferent (Indifferent: FICI>1.0-4.0)
Σ FIC ([2]; antibiotic + SP-BIM 13): <2.0
FIC of antibiotic ([2]; combination with SP-BIM 13): 1.0
MIC [3]: > 250 µg/mL
MIC [4]: > 250 µg/mL
FIC of SP-BIM 13 [5, 13]: 1.0
Interpretation ([5]; antibiotic + SP-BIM 13): Indifferent (Indifferent: FICI>1.0-4.0)
Σ FIC ([5]; antibiotic + SP-BIM 13): 2.0
FIC of antibiotic ([5]; in combination with SP-BIM 13): 1.0
MIC ([6]; 24 h, antibiotic alone, SP-BIM 9 checkerboard, read-out: MIC antibiotic only): > 250 µg/mL
MIC ([6]; 24 h, antibiotic alone, SP-BIM 13 checkerboard, read-out: MIC antibiotic only): > 250 µg/mL
MIC ([6]; MRSA, read-out: MIC of aztreonam only, MRSA, checkerboard): 250 µg/mL
FIC of SP-BIM 9 [6, 12]: 0.12
FIC of SP-BIM 13 [6, 13]: 0.5
Interpretation ([6]; antibiotic + SP-BIM 9): Synergy (Synergy: FICI≤0.5)
Σ FIC ([6]; antibiotic + SP-BIM 9): <0.16
Interpretation ([6]; antibiotic + SP-BIM 13): Additive (Additive: FICI>0.5-1.0)
Σ FIC ([6]; antibiotic + SP-BIM 13): <0.6
MIC in combination, Antibiotic [6, 14]: 8.0 µg/mL
MIC in combination, Antibiotic [6, 15]: 32 µg/mL
FIC of antibiotic ([6]; in combination with SP-BIM 9): 0.03
FIC of antibiotic ([6]; in combination with SP-BIM 13): 0.1
MIC ([7]; SP-BIM 9 checkerboard): > 250 µg/mL
MIC ([7]; SP-BIM 13 checkerboard): 250 µg/mL
MIC in combination, SP-BIM 9 ([7]; SP-BIM 9 concentration in combination with the labelled antibiotic): 63 µg/mL
FIC of SP-BIM 9 [7, 12]: 0.252
FIC of SP-BIM 13 [7, 13]: 0.5
Interpretation ([7]; antibiotic + SP-BIM 9): Synergy (Synergy: FICI≤0.5)
Σ FIC ([7]; antibiotic + SP-BIM 9): <0.5
Interpretation ([7]; antibiotic + SP-BIM 13): Indifferent (Indifferent: FICI>1.0-4.0)
Σ FIC ([7]; antibiotic + SP-BIM 13): 1.5
MIC in combination, Antibiotic [7, 14]: 63 µg/mL
MIC in combination, Antibiotic [7, 15]: 250 µg/mL
FIC of antibiotic ([7]; in combination with SP-BIM 9): 0.252
FIC of antibiotic ([7]; in combination with SP-BIM 13): 1.00
Σ FIC ([8]; Streptococcus pneumonia (title: Streptococcus pyogenes), antibiotic + SP-BIM 9): <0.00
FIC of SP-BIM 13 ([8]; Streptococcus pneumoniae, SP-BIM 13 in combination with the labelled antibiotic): 0.3
Interpretation [8, 16]: Synergy (Synergy: FICI≤0.5)
Σ FIC [8, 16]: <0.3
MIC in combination, Antibiotic ([8]; Streptococcus pneumoniae, antibiotic in combination with SP-BIM 13): 8 µg/mL
FIC of antibiotic ([8]; Streptococcus pneumoniae, in combination with SP-BIM 13): 0.1
MIC [9]: 8 µg/mL
FIC of SP-BIM 9 [10, 12]: 0.5
FIC of SP-BIM 13 [10, 13]: 1.0
Interpretation ([10]; antibiotic + SP-BIM 9): Synergy (Synergy: FICI≤0.5)
Σ FIC ([10]; antibiotic + SP-BIM 9): <0.8
Interpretation ([10]; antibiotic + SP-BIM 13): Indifferent (Indifferent: FICI>1.0-4.0)
Σ FIC ([10]; antibiotic + SP-BIM 13): <2.0
MIC in combination, Antibiotic [10, 14]: 32 µg/mL
FIC of antibiotic ([10]; combination with SP-BIM 13): 1.0
FIC of antibiotic ([10]; in combination with SP-BIM 9): 0.256

Oc1ccc2[nH]cc(C(c3ccc(Br)cc3)c3c[nH]c4ccc(O)cc34)c2c1 [SP-BIM 26, 3,3′-((4-bromophenyl)methylene)bis(1H-indol-5-ol)]
MIC of vancomycin in combination with […] SP-BIM 26 ([11]; E. coli O157:H7): 4 µg/mL
MIC ([11]; Escherichia coli, read-out: MIC (single agent)): > 250 µg/mL
